Earlier results as cited in patent EP0275444A1, “Pharmaceutical form for urapidil” (BYK GULDEN LOMBERG CHEMISCHE FABRIK GMBH, priority 1986, dated 1988).
Like-named read-outs stand apart in the source and are kept apart here.

Key:
[1] = in vivo

Löslichkeit (above pH 4, in water) | Löslichkeit (at the higher pH values of the intestine) | Eliminationshalbwertzeit [1] | SMILES
praktisch wasserunlöslich |  |  | OCCN(CCO)c1nc(N2CCCCC2)c2nc(N(CCO)CCO)nc(N3CCCCC3)c2n1 [Dipyridamol]
 | ausreichende Löslichkeit | 2,7 Stunden | COc1ccccc1N1CCN(CCCNc2cc(=O)n(C)c(=O)n2C)CC1 [Urapidil, 6-({3-[4-(o-Methoxyphenyl)-1-piperazinyl]propyl}amino)-1,3-dimethyluracil]
